From US20230416248A1, “COMPOUNDS AND USES THEREOF” (Foghorn Therapeutics Inc., priority 2020, published 2023)
pIC50: −log10 of the molar value. Like-named read-outs stand apart in the source and are kept apart here.

Tests used:
[1] = biological target: T1, BRG-1 (Homo sapiens, UniProt P51532); experiment: ATPase catalytic activity of BRG-1, ADP-Glo in vitro biochemical assay; conditions: 30 nM BRG-1, 400 μM ATP, read-out: BRG1 IC50
T1 construct: made in house; host or cells: High Five insect cells
Summary of the method: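 In this in vitro format, BRG-1 hydrolysis product ADP is detected via a two-step ADP-Glo workup (ATP removal, then ADP-to-ATP conversion with luciferase detection) followed by a luminescence read.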

[2] = biological target: T2, BRM (Homo sapiens, UniProt P51531); experiment: ATPase catalytic activity of BRM, ADP-Glo in vitro biochemical assay; conditions: for pIC50: 30 nM BRM, 400 μM ATP; for Ratio* (BRG1 IC50 (μM) divided by BRM IC50 (μM)): selectivity ratio BRG1 IC50 / BRM IC50
T2 construct: made in house; host or cells: High Five insect cells
Summary of the method: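 ADP-Glo luminescence, after depletion of leftover ATP and conversion of ADP, reported the activity. The 1 h room-temperature reaction held 400 μM ATP, 20 nM salmon sperm DNA and 30 nM BRM in 20 mM Tris pH 8, 20 mM MgCl2, 50 mM NaCl, 0.1% Tween-20, 1 mM DTT.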

[3] = ATPase catalytic activity, ADP-Glo

T2 sequence (P51531 whole entry): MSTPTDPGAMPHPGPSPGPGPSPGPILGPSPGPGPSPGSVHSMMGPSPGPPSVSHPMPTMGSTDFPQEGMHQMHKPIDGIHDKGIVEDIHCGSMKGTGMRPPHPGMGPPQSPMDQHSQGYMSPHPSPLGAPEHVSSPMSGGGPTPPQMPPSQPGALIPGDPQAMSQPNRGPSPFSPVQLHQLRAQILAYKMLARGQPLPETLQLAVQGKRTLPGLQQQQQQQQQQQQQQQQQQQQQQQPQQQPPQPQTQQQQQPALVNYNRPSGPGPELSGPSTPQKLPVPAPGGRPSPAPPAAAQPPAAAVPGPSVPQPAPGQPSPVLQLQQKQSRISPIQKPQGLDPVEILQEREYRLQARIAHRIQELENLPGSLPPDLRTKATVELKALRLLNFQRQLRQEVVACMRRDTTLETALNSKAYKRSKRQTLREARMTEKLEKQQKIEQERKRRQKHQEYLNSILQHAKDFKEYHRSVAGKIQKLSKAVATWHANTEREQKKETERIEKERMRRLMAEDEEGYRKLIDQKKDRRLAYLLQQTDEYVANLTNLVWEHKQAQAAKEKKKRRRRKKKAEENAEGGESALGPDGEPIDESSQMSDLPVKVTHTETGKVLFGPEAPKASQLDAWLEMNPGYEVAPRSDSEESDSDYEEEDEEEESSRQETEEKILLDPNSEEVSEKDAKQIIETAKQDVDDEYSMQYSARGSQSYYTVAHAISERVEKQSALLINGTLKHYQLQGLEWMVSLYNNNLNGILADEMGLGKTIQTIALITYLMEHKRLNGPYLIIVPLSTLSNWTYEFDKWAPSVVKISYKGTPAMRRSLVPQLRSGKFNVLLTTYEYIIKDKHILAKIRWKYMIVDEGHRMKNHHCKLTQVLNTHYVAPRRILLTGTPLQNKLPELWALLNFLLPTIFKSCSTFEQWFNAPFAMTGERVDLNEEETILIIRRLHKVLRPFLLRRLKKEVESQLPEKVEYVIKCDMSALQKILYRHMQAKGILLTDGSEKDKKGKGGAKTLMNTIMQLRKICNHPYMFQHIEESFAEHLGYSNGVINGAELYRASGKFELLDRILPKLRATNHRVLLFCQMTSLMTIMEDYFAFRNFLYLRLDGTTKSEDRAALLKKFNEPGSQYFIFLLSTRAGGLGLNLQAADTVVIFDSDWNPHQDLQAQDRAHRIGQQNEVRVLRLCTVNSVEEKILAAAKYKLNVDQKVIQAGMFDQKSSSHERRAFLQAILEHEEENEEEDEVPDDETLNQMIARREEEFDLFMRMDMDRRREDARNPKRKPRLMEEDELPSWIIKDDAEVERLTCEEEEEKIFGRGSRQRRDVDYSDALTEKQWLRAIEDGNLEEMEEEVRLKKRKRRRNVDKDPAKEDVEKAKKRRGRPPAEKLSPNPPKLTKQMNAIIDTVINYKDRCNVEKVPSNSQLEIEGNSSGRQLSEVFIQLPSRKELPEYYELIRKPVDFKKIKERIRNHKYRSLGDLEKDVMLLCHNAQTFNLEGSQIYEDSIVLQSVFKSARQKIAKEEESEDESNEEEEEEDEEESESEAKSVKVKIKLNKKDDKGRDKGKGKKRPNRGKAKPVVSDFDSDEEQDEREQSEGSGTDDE
T1 sequence (P51532 whole entry): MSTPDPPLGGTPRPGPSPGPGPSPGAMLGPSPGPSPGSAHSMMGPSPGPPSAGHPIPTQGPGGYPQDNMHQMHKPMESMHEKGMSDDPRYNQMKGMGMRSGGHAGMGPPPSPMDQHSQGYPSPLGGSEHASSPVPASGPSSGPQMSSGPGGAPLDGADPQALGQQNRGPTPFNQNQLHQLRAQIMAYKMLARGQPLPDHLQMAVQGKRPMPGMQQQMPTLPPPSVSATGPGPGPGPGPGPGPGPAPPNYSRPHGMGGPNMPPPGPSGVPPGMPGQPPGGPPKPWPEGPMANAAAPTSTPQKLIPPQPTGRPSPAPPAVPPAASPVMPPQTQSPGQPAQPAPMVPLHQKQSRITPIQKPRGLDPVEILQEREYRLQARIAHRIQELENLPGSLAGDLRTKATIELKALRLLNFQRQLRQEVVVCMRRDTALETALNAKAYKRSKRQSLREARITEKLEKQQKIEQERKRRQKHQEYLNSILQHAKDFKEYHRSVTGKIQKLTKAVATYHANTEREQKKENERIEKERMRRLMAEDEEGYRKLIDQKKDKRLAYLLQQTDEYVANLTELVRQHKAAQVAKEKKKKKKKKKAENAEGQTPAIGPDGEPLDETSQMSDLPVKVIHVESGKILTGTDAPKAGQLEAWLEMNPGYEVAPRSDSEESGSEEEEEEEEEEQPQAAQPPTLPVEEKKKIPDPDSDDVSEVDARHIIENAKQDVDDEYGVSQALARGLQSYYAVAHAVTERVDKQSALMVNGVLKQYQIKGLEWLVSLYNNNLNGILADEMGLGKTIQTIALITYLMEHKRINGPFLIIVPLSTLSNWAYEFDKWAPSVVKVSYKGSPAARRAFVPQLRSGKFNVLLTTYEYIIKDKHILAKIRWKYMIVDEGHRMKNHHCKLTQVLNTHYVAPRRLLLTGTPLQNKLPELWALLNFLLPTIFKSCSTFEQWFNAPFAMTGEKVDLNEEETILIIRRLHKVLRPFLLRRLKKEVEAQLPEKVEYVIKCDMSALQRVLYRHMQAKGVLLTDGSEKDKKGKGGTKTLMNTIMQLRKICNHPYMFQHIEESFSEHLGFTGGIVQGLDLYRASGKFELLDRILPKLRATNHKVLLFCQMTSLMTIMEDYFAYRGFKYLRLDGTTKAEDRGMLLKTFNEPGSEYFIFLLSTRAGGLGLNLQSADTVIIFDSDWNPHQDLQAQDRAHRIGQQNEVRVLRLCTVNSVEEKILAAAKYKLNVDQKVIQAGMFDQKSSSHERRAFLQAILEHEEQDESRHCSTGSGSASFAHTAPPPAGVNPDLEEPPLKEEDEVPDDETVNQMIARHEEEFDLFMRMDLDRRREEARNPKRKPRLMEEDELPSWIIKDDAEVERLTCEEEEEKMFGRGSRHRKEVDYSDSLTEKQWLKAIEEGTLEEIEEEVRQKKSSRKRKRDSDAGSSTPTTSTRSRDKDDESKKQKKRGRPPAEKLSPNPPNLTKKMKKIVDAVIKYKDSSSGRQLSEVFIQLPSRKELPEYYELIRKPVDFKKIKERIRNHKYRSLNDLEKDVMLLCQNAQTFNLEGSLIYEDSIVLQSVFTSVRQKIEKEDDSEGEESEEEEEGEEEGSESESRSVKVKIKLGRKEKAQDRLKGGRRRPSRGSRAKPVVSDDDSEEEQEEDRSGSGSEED

Row | SMILES | pIC50 ([1]; ADP-Glo ATPase assay) | pIC50 ([2]; ADP-Glo ATPase assay) | Ratio* (BRG1 IC50 (μM) divided by BRM IC50 (μM)) [2] | pIC50 [1, 3] | pIC50 [2, 3] | Ratio* ([2]; ratio of BRG1 IC50 to BRM IC50) | Ratio* ([2]; ratio BRG1 IC50 / BRM IC50)
1 | COc1cc(CC(F)F)ccc1-c1ccc2cnc(CNC(=O)c3ccc4c(c3)S(=O)(=O)CCOC4)cc2n1 [Compound 316] | – | – | – | 6.31 | 7.33 | 10.49 | –
2 | C[C@H]1CN(c2cccc(-c3ccc4cnc(CNC(=O)c5ccc(Cl)c(S(C)(=O)=O)c5)cc4n3)n2)C[C@H](C)O1 [Compound 179] | 6.42 | 7.48 | 11.49 | – | – | – | –
3 | COc1cc(C(F)F)ccc1-c1ccc2cnc(CNC(=O)c3ccc4c(c3)S(=O)(=O)[C@@H](C)COC4)cc2n1 [Compound 320] | – | – | – | 6.65 | 7.92 | 18.81 | –
4 | Cc1nc(C)c2c(n1)N(c1ccc3cnc(CNC(=O)c4ccc5c(c4)S(=O)(=O)CCOC5)cc3n1)CCC2 [Compound 841] | 5.68 | 6.54 | – | – | – | – | 7.16
5 | CS(=O)(=O)c1cc(C(=O)NCc2cc3nc(-c4cccc(C5CC5)n4)ccc3cn2)ccc1C#N [Compound 259] | 5.30 | 6.33 | 10.71 | – | – | – | –
6 | O=C(NCc1cc2nc(-c3cccc(C4=CCOCC4)n3)ccc2cn1)c1ccc2c(c1)S(=O)(=O)CCOC2 [Compound 183] | 6.99 | 8.05 | 11.33 | – | – | – | –
7 | COc1nc(C(F)F)ccc1-c1ccc2cnc(CNC(=O)c3ccc4c(c3)S(=O)(=O)CCOC4)cc2n1 [Compound 329] | – | – | – | 6.89 | 8.07 | 15.19 | –
8 | C[C@@H]1CN(c2nc(-c3ccc4cnc(CNC(=O)c5ccc6c(c5)S(=O)(=O)CCOC6)cc4n3)ccc2F)C[C@H](C)O1 [Compound 111] | 7.56 | 8.22 | 4.58 | – | – | – | –
9 | COCc1cc(F)c2c(c1)OCCN2c1ccc2cnc(CNC(=O)c3ccc4c(c3)S(=O)(=O)CCOC4)cc2n1 [Compound 796] | 6.56 | 7.68 | – | – | – | – | 13.06
10 | Cn1cnc2c1CCCN2c1ccc2cnc(CNC(=O)c3ccc4c(c3)S(=O)(=O)CCOC4)cc2n1 [Compound 688] | – | – | – | 5.77 | 6.59 | 6.65 | –
11 | CS(=O)(=O)c1cc(C(=O)NCc2cc3nc(-c4cncc(C5CC5)n4)ccc3cn2)cnc1C(F)F [Compound 277] | 5.27 | 6.21 | 8.72 | – | – | – | –
12 | O=C(NCc1cc2cc(N3CCOc4cnc(C5CC5)nc43)ccc2cn1)c1ccc2c(c1)S(=O)(=O)CCOC2 [Compound 822] | 6.34 | 7.44 | – | – | – | – | 12.47
13 | O=C(NCc1cc2nc(-c3cccc(N4CCCC4)n3)ccc2cn1)c1ccc2c(c1)S(=O)(=O)CCOC2 [Compound 220] | 6.84 | 7.80 | 9.02 | – | – | – | –
14 | CCN(C[C@H](C)OC)c1cccc(-c2ccc3cnc(CNC(=O)c4ccc5c(c4)S(=O)(=O)CCOC5)cc3n2)n1 [Compound 345] | – | – | – | 6.60 | 7.82 | 16.77 | –
15 | CS(=O)(=O)c1cc(C(=O)NCc2cc3nc(-c4cncc(C5CC5)n4)ccc3cn2)ccc1CC(F)F [Compound 164] | 5.85 | 6.96 | 12.80 | – | – | – | –
16 | COCc1cc2c(nc1C)N(c1ccc3cnc(CNC(=O)c4ccc5c(c4)S(=O)(=O)CCOC5)cc3n1)CCC2 [Compound 590] | – | – | – | 6.75 | 7.65 | 7.93 | –
17 | Cc1cc(C(=O)NCc2cc3cc(-c4cccc(N5C[C@@H](C)O[C@@H](C)C5)n4)ccc3cn2)cc2c1COCCS2(=O)=O [Compound 728] | 7.53 | 7.91 | – | – | – | – | 2.42
18 | COCCN1CCCOc2c(-c3ccc4cnc(CNC(=O)c5ccc6c(c5)S(=O)(=O)CCOC6)cc4n3)cccc21 [Compound 313] | – | – | – | 6.41 | 6.98 | 3.69 | –
19 | O=C(NCc1cc2nc(N3CCCc4ccc(OC(F)F)nc43)ccc2cn1)c1ccc2c(c1)S(=O)(=O)CCOC2 [Compound 643] | – | – | – | 6.05 | 6.97 | 8.21 | –
20 | CN(C)S(=O)(=O)c1cccc(C(=O)NCc2cc3nc(-c4cncc(C5CC5)n4)ccc3cn2)c1 [Compound 301] | 5.05 | 6.07 | 10.34 | – | – | – | –
21 | COCc1cc(C)c2c(n1)N(c1ccc3cnc(CNC(=O)c4ccc5c(c4)S(=O)(=O)CCOC5)cc3n1)CCC2 [Compound 816] | 6.12 | 7.37 | – | – | – | – | 18.04
22 | C[C@@H]1CN(c2cccc(-c3ccc4cnc(CNC(=O)c5ccc6c(c5)S(=O)(=O)CCOCC6)cc4n3)n2)C[C@H](C)O1 [Compound 627] | – | – | – | 8.30 | 8.41 | 1.28 | –
23 | COc1nc(-c2ccc3cnc(CNC(=O)c4ccc5c(c4)S(=O)(=O)CCOC5)cc3n2)ccc1C(F)F [Compound 399] | – | – | – | 6.94 | 8.11 | 14.57 | –
24 | O=C(NCc1cc2nc(-c3cccc(N(CC4COC4)C4CC4)n3)ccc2cn1)c1ccc2c(c1)S(=O)(=O)CCOC2 [Compound 428] | – | – | – | 6.49 | 7.30 | 6.45 | –
25 | O=C(NCc1cc2nc(-c3cncc(C4CC4)n3)ccc2cn1)c1cnc2c(c1)S(=O)(=O)CCCCC2 [Compound 450] | – | – | – | 6.74 | 7.83 | 12.27 | –
26 | CN(C)c1cccc(-c2ccc3cnc(CNC(=O)c4ccc5c(c4)S(=O)(=O)CCOC5)cc3n2)n1 [Compound 303] | 6.81 | 7.91 | 12.63 | – | – | – | –
27 | O=C(NCc1cc2nc(N3CCC(F)(F)c4cccnc43)ccc2cn1)c1ccc2c(c1)S(=O)(=O)CCOC2 [Compound 767] | 6.71 | 7.76 | – | – | – | – | 11.17

Results, then the molecule that gave them:

Row | pIC50 ([1]; ADP-Glo ATPase assay) | pIC50 ([2]; ADP-Glo ATPase assay) | Ratio* (BRG1 IC50 (μM) divided by BRM IC50 (μM)) [2] | pIC50 [1, 3] | pIC50 [2, 3] | Ratio* ([2]; ratio of BRG1 IC50 to BRM IC50) | Ratio* ([2]; ratio BRG1 IC50 / BRM IC50) | SMILES
28 | 6.51 | 7.35 | 7.01 | – | – | – | – | CN(c1cccc(-c2ccc3cnc(CNC(=O)c4ccc5c(c4)S(=O)(=O)CCOC5)cc3n2)n1)[C@H]1CCOC1 [Compound 117]
29 | 6.24 | 7.32 | 11.91 | – | – | – | – | Cc1cc2c(-c3ccc4cnc(CNC(=O)c5ccc(Cl)c(S(C)(=O)=O)c5)cc4n3)cccc2n1C [Compound 129]
30 | 6.64 | 7.98 | – | – | – | – | 21.91 | O=C(NCc1cc2nc(N3CCOc4cc(F)cnc43)ccc2cn1)c1ccc2c(c1)S(=O)(=O)CCOC2 [Compound 737]
31 | – | – | – | 6.99 | 7.63 | 4.32 | – | C[C@@H]1CCc2ccc(-c3ccc4cnc(CNC(=O)c5ccc6c(c5)S(=O)(=O)CCOC6)cc4n3)nc2N1C [Compound 467]
32 | – | – | – | 6.34 | 7.69 | 22.48 | – | C[C@@H]1CN(c2cccc(-c3ccc4cnc(CNC(=O)c5cc(Cl)c6c(c5)S(=O)(=O)CCO[C@@H]6C)cc4n3)n2)C[C@H](C)O1 [Compound 553]
33 | 6.47 | 7.79 | – | – | – | – | 20.67 | Cc1nc2c(cc1F)OCCN2c1ccc2cnc(CNC(=O)c3ccc4c(c3)S(=O)(=O)CCOC4)cc2n1 [Compound 770]
34 | 7.21 | 7.91 | – | – | – | – | 5.03 | CN(C)c1cnc2c(c1)OCCN2c1ccc2cnc(CNC(=O)c3ccc4c(c3)S(=O)(=O)CCOC4)cc2c1 [Compound 790]
35 | – | – | – | 6.68 | 7.82 | 13.70 | – | CO[C@@H]1C[C@H]1N(C)c1cccc(-c2ccc3cnc(CNC(=O)c4ccc5c(c4)S(=O)(=O)[C@@H](C)COC5)cc3n2)n1 [Compound 672]
36 | 5.61 | 6.73 | 13.28 | – | – | – | – | COc1nn([C@H]2C[C@@H](F)C2)cc1-c1ccc2cnc(CNC(=O)c3ccc4c(c3)S(=O)(=O)CCOC4)cc2c1 [Compound 134]
37 | – | – | – | 6.54 | 7.86 | 21.16 | – | C[C@@H]1CN(c2cccc(-c3ccc4cnc(CNC(=O)c5cc(Cl)c6c(c5)S(=O)(=O)[C@@H](C)CCO6)cc4n3)n2)C[C@H](C)O1 [Compound 484]
38 | 5.83 | 6.97 | 13.78 | – | – | – | – | C[C@@H]1[C@@H](c2cccc(-c3ccc4cnc(CNC(=O)c5ccc6c(c5)S(=O)(=O)CCOC6)cc4n3)n2)C1(F)F [Compound 173]
39 | 5.48 | 6.48 | 10.01 | – | – | – | – | C[C@@]1(c2cccc(-c3ccc4cnc(CNC(=O)c5ccc6c(c5)S(=O)(=O)CCOC6)cc4n3)n2)CC1(F)F [Compound 214]
40 | 6.68 | 7.90 | – | – | – | – | 16.64 | Cc1ccc2c(c1)OCCN2c1ccc2cnc(CNC(=O)c3cnc4c(c3)S(=O)(=O)[C@@H](C)COC4)cc2n1 [Compound 749]
41 | 6.30 | 7.45 | – | – | – | – | 14.23 | O=C(NCc1cc2nc(N3CCOc4cc(N5CCC(F)(F)C5)cnc43)ccc2cn1)c1ccc2c(c1)S(=O)(=O)CCOC2 [Compound 758]
42 | 7.29 | 7.97 | 4.70 | – | – | – | – | C[C@@H]1CN(c2cccc(-c3ccc4cnc(CNC(=O)c5ccc(CC(F)F)c(S(C)(=O)=O)c5)cc4n3)n2)C[C@H](C)O1 [Compound 138]
43 | 6.63 | 7.78 | 14.10 | – | – | – | – | COc1nn(C2COC2)cc1-c1ccc2cnc(CNC(=O)c3ccc4c(c3)S(=O)(=O)CCOC4)cc2c1 [Compound 261]
